Test results published in patent US8895583B2, “Soluble guanylate cyclase activators” (Merck Sharp & Dohme Corp., priority 2010, dated 2014).

Biological target: T1, sGC α1/β1 heterodimer (Homo sapiens, UniProt Q02108+Q02153)
T1 construct: expressed in transfected cells
T1 sequence (Q02108 1-690 partner): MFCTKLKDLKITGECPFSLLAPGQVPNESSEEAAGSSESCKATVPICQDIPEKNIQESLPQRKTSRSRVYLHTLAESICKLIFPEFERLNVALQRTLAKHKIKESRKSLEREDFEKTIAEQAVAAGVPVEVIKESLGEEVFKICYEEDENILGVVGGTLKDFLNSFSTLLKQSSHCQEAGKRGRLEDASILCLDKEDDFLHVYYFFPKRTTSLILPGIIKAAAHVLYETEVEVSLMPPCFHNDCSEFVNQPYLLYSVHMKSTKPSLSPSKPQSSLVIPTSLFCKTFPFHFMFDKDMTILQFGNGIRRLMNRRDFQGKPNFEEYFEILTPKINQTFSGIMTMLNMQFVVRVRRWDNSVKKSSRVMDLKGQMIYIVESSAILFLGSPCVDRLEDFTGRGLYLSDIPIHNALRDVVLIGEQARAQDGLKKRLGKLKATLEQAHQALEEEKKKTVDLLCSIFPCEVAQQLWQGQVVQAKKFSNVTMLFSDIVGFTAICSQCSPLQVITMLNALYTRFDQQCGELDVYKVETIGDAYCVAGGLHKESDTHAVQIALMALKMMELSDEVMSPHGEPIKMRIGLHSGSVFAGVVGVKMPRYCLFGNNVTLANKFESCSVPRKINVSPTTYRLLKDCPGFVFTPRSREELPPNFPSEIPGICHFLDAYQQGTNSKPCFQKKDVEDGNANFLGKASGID
T1 sequence (Q02153 1-619): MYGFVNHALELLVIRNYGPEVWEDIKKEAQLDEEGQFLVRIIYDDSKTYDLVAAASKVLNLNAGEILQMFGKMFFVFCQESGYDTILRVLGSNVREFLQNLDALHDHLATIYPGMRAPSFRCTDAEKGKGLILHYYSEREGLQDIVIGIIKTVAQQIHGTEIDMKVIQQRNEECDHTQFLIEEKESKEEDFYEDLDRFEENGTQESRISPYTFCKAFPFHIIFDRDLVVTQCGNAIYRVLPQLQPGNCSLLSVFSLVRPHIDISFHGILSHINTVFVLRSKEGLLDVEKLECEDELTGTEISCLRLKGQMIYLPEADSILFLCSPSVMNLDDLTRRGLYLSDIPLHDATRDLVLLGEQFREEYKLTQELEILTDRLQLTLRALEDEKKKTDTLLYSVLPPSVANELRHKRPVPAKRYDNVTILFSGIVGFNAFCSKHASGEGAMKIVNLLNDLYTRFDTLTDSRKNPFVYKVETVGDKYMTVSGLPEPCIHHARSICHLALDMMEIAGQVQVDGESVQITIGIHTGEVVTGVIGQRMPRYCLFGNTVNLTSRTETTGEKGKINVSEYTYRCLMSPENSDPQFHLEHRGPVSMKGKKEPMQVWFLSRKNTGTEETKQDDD
Test: Cell-based sGC Functional Assay (cGMP level by HTRF in CHO-K1/sGC cells)
Conditions: with ODQ incubation (10 μM); for EC50: read-out: IP (nM) inflection point; for fold induction: read-out: maximum fold induction over DMSO control
Text: Cell-based sGC Functional Assay
A CHO-K1 cell line stably expressing the sGC α1/β1 heterodimer was generated using a standard transfection protocol. CHO-K1 cells were transfected with plasmids pIREShyghsGCα1 and pIRESneo-hsGCβ1 simultaneously using FUGENE reagent. Clones that stably express both subunits were selected with hygromycin and neomycin for ˜2 weeks. Clone #7 was chosen for the assay and was designated CHO-K1/sGC. CHO-K1/sGC cells were maintained in F-K12 medium containing 10% heat-inactivated Fetal Bovine Serum (FBS), 100 μg/mL penicillin/streptomycin, 0.5 mg/mL hygromycin and 0.25 mg/mL G418. On the day of the assay, cells were harvested in EBSS (Earle's balanced salt solution) Assay Buffer (EAB) containing 5 mM MgCl2, 10 mM HEPES (4-(2-hydroxyethyl)piperazine-1-ethanesulfonic acid) and 0.05% BSA (bovine serum albumin) and cell density was adjusted to 0.75−1.25×10^6 cells/ml with EAB. IBMX (3-isobutyl-1-methylxanthin, 0.5 mM) was added to inhibit degradation of cGMP. Compounds were diluted from DMSO stock solutions and added to the assay at a final DMSO concentration of 1%. Cells were incubated with compounds in the presence and absence of 10 μM of 1H-(1,2,4)oxadiazolo(4,3-a) quinoxalin-1-one (ODQ) for 1 hr at 37° C. At the end of the incubation period, the reaction was terminated and the cells were lysed. The level of intracellular cGMP was determined using an HTRF-based assay kit (CisBio, 62GM2PEC), which detects the displacement of a fluorescence labeled cGMP from its specific antibody. The amount of cGMP was plotted against compound concentration in PRISM software and the inflection point (IP) and maximum fold induction over DMSO control were derived from the plot.

Row | SMILES | EC50 | fold induction
1 | O=C(O)c1cnn(-c2cccc(-c3cc(Cl)ccc3-c3ccc(C4CCN(CC(F)(F)F)CC4)cc3)n2)c1C(F)(F)F [Example 60, 1-(6-{4-chloro-4′-[1-(2,2,2-trifluoroethyl)piperidin-4-yl]biphenyl-2-yl}pyridin-2-yl)-5-(trifluoromethyl)-1H-pyrazole-4-carboxylic acid] | 14.6 nM | 231
2 | O=C(O)c1cnn(-c2cccc(-c3cc(C(F)(F)F)cnc3-c3ccc(C4CCN(CC(F)(F)F)CC4)cc3)n2)c1C(F)(F)F [Example 61, 1-[2′-{4-[1-(2,2,2-trifluoroethyl)piperidin-4-yl]phenyl}-5′-(trifluoromethyl)-2,3′-bipyridin-6-yl]-5-(trifluoromethyl)-1H-pyrazole-4-carboxylic acid] | 16.3 nM | 248
3 | O=C(O)c1cnn(-c2cccc(-c3cc(Cl)ccc3-c3ccc(C4CCN(C(=O)C5CC5)CC4)cc3)n2)c1C(F)(F)F [Example 94, 1-(6-{4-chloro-4′-[1-(cyclopropylcarbonyl)piperidin-4-yl]biphenyl-2-yl}pyridin-2-yl)-5-(trifluoromethyl)-1H-pyrazole-4-carboxylic acid] | 30.2 nM | 281
4 | COC(=O)N1CCC(c2ccc(-c3ccc(C(F)(F)F)cc3-c3cccc(-n4ncc(C(=O)O)c4C(F)(F)F)n3)cc2)CC1 [Example 127, 1-{6-[4′-[1-(methoxycarbonyl)piperidin-4-yl]-4-(trifluoromethyl)biphenyl-2-yl]pyridin-2-yl}-5-(trifluoromethyl)-1H-pyrazole-4-carboxylic acid] | 15.8 nM | 119
5 | O=C(O)c1cnn(-c2cccc(-c3cc(F)ccc3-c3ccc(C4CCN(CCC(F)(F)F)CC4)cc3)n2)c1C(F)(F)F [Example 136, 1-(6-{4-fluoro-4′-[1-(3,3,3-trifluoropropyl)piperidin-4-yl]biphenyl-2-yl}pyridin-2-yl)-5-(trifluoromethyl)-1H-pyrazole-4-carboxylic acid] | 78.8 nM | 162
6 | O=C(O)c1cnn(-c2cccc(-c3cc(Cl)ccc3-c3ccc(N4CCN(CC(F)(F)F)CC4)cc3)n2)c1C(F)(F)F [Example 175, 1-(6-{4-chloro-4′-[4-(2,2,2-trifluoroethyl)piperazin-1-yl]biphenyl-2-yl}pyridin-2-yl)-5-(trifluoromethyl)-1H-pyrazole-4-carboxylic acid] | 9.8 nM | 703
